This is an account of results in patent publication US20250236841A1, “METHODS TO ENHANCE TUMOR IMMUNOGENICITY AND COMPOSITIONS FOR AUTOLOGOUS CANCER IMMUNOTHERAPEUTIC PRODUCTS USING MODIFIED TUMOR CELLS AND MODIFIED DENDRITIC CELLS” (AIVITA BIOMEDICAL, INC., priority 2017, published 2025).

Where a SMILES comes first, the peptide text is derived from it. The star is where a group is joined. Cbz = O=C(OCc1ccccc1)*; CH2F = FC*

Assay type in all cases: cell-based
For experiment [1], the system named is isolated live cancer cells. Briefly: augmentation culture with proteasome inhibitors (Example 4). Conditions: lactacystin 0.1-1 μM, epoxomicin 1-2 μM, and/or HMB 10-150 μg/mL; at least the last 24 hours prior to harvest. The method, then:
Isolated live cancer cells are placed in tissue culture. The tissue culture medium is supplemented with lactacystin at a concentration of 0.1-1 μM, epoxomicin at a concentration of 1-2 μM, and/or HMB at a concentration of 10-150 μg/mL. The inhibitor can be present throughout the augmentation phase of culture, or a portion thereof, but at least the last 24 hours prior to harvest. Doses in the lower end of the stated ranges are appropriate for longer term exposure. Doses at the high end of the state ranges can be used in the last 24 hours of cultivation. The content of protein (including normal, mutated and misfolded proteins) in the cancer cells is increased.

For experiment [2], the system named is isolated live cancer cells. As to the kind of experiment: culture with caspase inhibitor (Example 6). Conditions: Z-VAD-fmk 5-50 μM throughout proliferation and augmentation phases. How it is done: Isolated live cancer cells are placed in tissue culture. The tissue culture medium is supplemented with the broad spectrum caspase inhibitor Z-VAD-fmk at a concentration of 5-50 μM. The caspase inhibitor is added at the initiation of cell culture and maintained throughout the proliferation and augmentation phases of culture.

For experiment [3], the system named is established ovarian tumor line. Briefly: cell survival of ovarian tumor line culture exposed to proteasome inhibitor and/or caspase inhibitor. How it is done: To benefit from the increased antigen content that can be obtained through use of a proteasome inhibitor, but also avoid triggering apoptosis, the proteasome inhibitor can be used in conjunction with a caspase inhibitor. First, to find the concentration of the proteasome inhibitor that caused minimal cell death, a range of bortezomib dilutions were tested in vitro on an established ovarian tumor line after reaching 70-90% confluence. The cultures were maintained in a standard DMEM:F12 media with 5% FBS. Bortezomib was reconstituted in DMSO and added directly to the cultures in concentrations from 0.1 to 100 nM
A concentration of 20 μM was chosen for further experiments.
Then the sequential application of the caspase inhibitor and proteasome inhibitor was tested. The tumor cells were cultured in the presence of 20 μM caspase inhibitor Z-VAD-fmk for 24 hours and then the medium was exchanged for medium containing bortezomib and the cells culture for another 48 hours. Bortezomib was used at the lowest concentration of that induced cell death, 5 nM.
The simultaneous application of Bortezomib and Z-VAD-fmk was also tested using 1 nM Botezomib with either 1 or 20 μM Z-VAD-fmk.

A further experiment deals with CA125. As to the kind of experiment: antibody labeling and epifluorescence imaging of protein content, CA125. Conditions: bortezomib 0.1 nM to 1.0 nM, without caspase inhibitor (FIGS. 6 and 7). The text has this:
(§1) To evaluate protein content, we queried two targets that are commonly found in cancers: CA125, which is typically specific for ovarian cancer, and MUC1, which is common in many types of cancer (for example, colon, breast, ovarian, lung and pancreatic). The proteins were labeled using antibodies conjugated with Alexa Fluor 488 (green; anti-MUC1) or 594 (red; anti-CA125). The cells were imaged with an epifluorescence microscope (Nikon) with pre-set parameters for exposure and magnification.

For a further experiment, the system named is MUC1. As to the kind of experiment: antibody labeling and epifluorescence imaging of protein content, MUC1. Conditions: bortezomib 0.1 nM to 1.0 nM, without caspase inhibitor (FIGS. 6 and 7).
Excerpt: as §1

Experiment [4] has as its system isolated live cancer cells. As to the kind of experiment: augmentation culture with DNA methyltransferase inhibitor (Example 3). Conditions: decitabine 100-500 nM throughout, or 1 μM-10 μM at beginning of augmentation phase. How it is done: Isolated live cancer cells are placed in tissue culture. The tissue culture medium is supplemented with decitabine from the beginning of the augmentation phase for not less than one hour and up to the entire augmentation phase depending on concentration. A concentration of 100-500 nM can be used throughout the augmentation phase of cultivation. Alternatively a higher concentration of 1 μM-10 μM can be used at beginning of the augmentation phase and then removed or reduced to the lower concentration.

The test system of experiment [5] is isolated live cancer cells. Briefly: augmentation culture with histone deacetylase inhibitors (Example 2). Conditions: 0.01 mM to 10 mM each in the medium during augmentation phase. How it is done: Isolated live cancer cells are placed in tissue culture. During an augmentation phase, the tissue culture medium is supplemented with valproic acid or phenylbutyrate, or both, each at a concentration of 0.01 mM to 10 mM each. The level of histone acetylation, mRNA transcription, and protein expression, including expression of TAA, all increase.

Experiment [6] concerns isolated live cancer cells. As to the kind of experiment: depletion of Wnt signaling ligands (Example 7). Conditions: beta-methyl-cyclodextrin 0.5-20 mM, one half to 3 hours prior to the end of the augmentation phase. The method, then: Isolated live cancer cells are placed in tissue culture. One half to 3 hours prior to the end of the augmentation phase and preparation for DC loading, the tissue culture medium is supplemented with beta-methyl-cyclodextrin at a concentration of 0.5-20 mM. Cholesterol and Wnt ligands are depleted from the plasma membrane of the cancer cells.

`CC(C)(O)CC(=O)O` [HMB, beta-hydroxy beta-methylbutyrate]: the “content of protein (including normal, mutated and misfolded proteins) in the cancer cells” value in experiment [1] is “increased”.

Turning to `COC(=O)C[C@H](NC(=O)[C@H](C)NC(=O)[C@@H](NC(=O)OCc1ccccc1)C(C)C)C(=O)CF` [Z-VAD-fmk] (Cbz-Val-Ala-Asp(OMe)-CH2F), in experiment [2], the “accumulation of proteins, including TAA” value was “accumulate to higher levels than in untreated cultures” and the “viability of the cultured cancer cells” value is recorded as “maintaining a high degree of viability”. For the same compound, the “effect on cell survival” value in experiment [3] (Z-VAD-fmk 10-100 μM, without an apoptotic challenge) is recorded as “did not have an effect on cell survival”.

On to `CC(C)C[C@H](NC(=O)[C@H](Cc1ccccc1)NC(=O)c1cnccn1)B(O)O` [bortezomib], for which the effect on survival result in experiment [3] (below 1 nM bortezomib) is listed as “did not have effect on survival”. The “lowest concentration that induced cell death” value in experiment [3] (bortezomib alone) turned out to be 5 nM. In addition, the cell survival result in experiment [3] (concentrations above 5 nM bortezomib, within 24 hours, DMEM:F12 with 5% FBS) is listed as “all cells died”; in experiment [3] (from 5 nM to 1 nM bortezomib), “cell survived proportional with decreasing concentration”. In addition, the “abundance and content of CA125 (mean fluorescence intensity, sum of labeled pixels)” value with CA125 is given as “increase”. The “abundance and content of MUC1 (mean fluorescence intensity, sum of labeled pixels)” value in the experiment on MUC1 is “increase”.

For `Nc1ncn([C@H]2C[C@H](O)[C@@H](CO)O2)c(=O)n1` [decitabine, 5-aza-2′-deoxycytidine], in experiment [4], the “expression of silenced germ line and tumor-specific antigens” value was “increased and becomes more uniform”; the hypermethylation result was “reversed”.

For `CC[C@H](C)[C@H](NC(=O)[C@H]([C@@H](C)CC)N(C)C(C)=O)C(=O)N[C@H](C(=O)N[C@@H](CC(C)C)C(=O)[C@@]1(C)CO1)[C@@H](C)O` [epoxomicin], the “content of protein (including normal, mutated and misfolded proteins) in the cancer cells” value in experiment [1] is “increased”.

Turning to `CC(=O)N[C@@H](CSC(=O)[C@]1([C@@H](O)C(C)C)NC(=O)[C@H](C)[C@@H]1O)C(=O)O` [lactacystin], the “content of protein (including normal, mutated and misfolded proteins) in the cancer cells” value in experiment [1] is on record as “increased”.

Consider `CCCC(CCC)C(=O)O` [valproic acid], for which, in experiment [5], the “level of histone acetylation, mRNA transcription, and protein expression, including expression of TAA” value is “increase”.

“methyl-β-cyclodextrin [beta-methyl-cyclodextrin]”: the “cholesterol and Wnt ligands of the plasma membrane of the cancer cells” value in experiment [6] is “depleted”.
